Reference: patent US8426448B2, “1,5-diphenyl-pyrrolidin-2-one compounds as CB-1 ligands” (Eli Lilly and Company, priority 2008, dated 2013)
Structures can show the parent of a compound that is named as a salt. Blank lines part the entries; values can stand above or below the molecule they belong to.

Key:
[1] = tested on: Male NIH Swiss mice; assay: Forced swim test (FST); format: in vivo; set-up: key to Dunett's Test (0.05) * against vehicle, # against Imipramine: * against vehicle; # against Imipramine; conditions: for minimum effective dose (MED) in forced swim test: Dunett's Test (0.05) statistically significant; for Seconds of immobility: last 4 min of 6 min swim, n = 8; for Dunett's Test (0.05) * against vehicle, # against Imipramine: immobility time
Excerpt: The forced swim test is a well established animal model for depression, anxiety and avolition (lack of motivation)(Porsolt, et al. Nature (1977) 266, 730) (J. M. Witkin et al., Trends Pharmacol Sci. 2005 26:609-17). It can also be used as a model for the treatment of negative symptoms of schizophrenia.
Male NIH Swiss mice (Harlan Sprague-Dawley) are housed 12 mice/cage for 7-10 days prior to testing. On the day of testing, mice weighing 25-30 g, are brought to the testing room at least 1 hr. prior to dosing. Mice are dosed (p.o.) at 6-8 min. intervals with either vehicle (1% CMC/0.5% SLS/0.08% povidone/0.05 antifoam for CB1 inverse agonists) or test compound and put it into a clean cage (4 mice/cage).
To test, mice are placed individually in clear plastic cylinders (about 10 cm diameter×25 cm height) filled to 6 cm with water at 22-25° C. for six min. The duration of immobility during the last 4 min. is recorded. A mouse is regarded as immobile when floating motionless or making only those movements necessary to keep its head above the water.
The immobility time (in seconds) is analyzed by ANOVA using Dunnett's test. The minimum effective dose (MED) is considered to be the lowest dose of test compound at which a statistically significant decrease in the immobility time is observed versus the vehicle control.

[2] = Rat oral bioavailability; format: in vivo; conditions: Sprague-Dawley, plasma, fasted male SD rats, IV 0.25 mg/kg (20% MEOP/80% water), PO 1 mg/kg (1% NaCMC/0.5% SLS/0.05% antifoam), based on AUC0-∞
Method: (§1) Cohorts of three or four 250-450 gram male Sprague-Dawley rats or approximately 10 kg Beagle dogs (female or male) are used. […] Dogs are administered i.v. by cannulated cephalic vein and blood collections are by jugular vein. Animals are first dosed at 0.25 mg/kg i.v. and blood samples (0.2 mL) are then collected using EDTA as an anticoagulant at 0.0830, 0.25, 0.50, 1, 2, 4, 8, 12, 24, 48, 72, 96, and 120 hours. Next after at least two days and after 18-24 hours fasting, the animals are dosed at 1.0 mg/kg by oral gavage. During the course of a study the total of blood (ml) collected is not to exceed 1% of total body weight in grams. Should larger blood volumes be required, the sampled blood volume is replace with heparinized whole blood from a donor animal. When using a cross-over study design, rats receive a volume of heparinized whole blood following the final sample of each study day approximately equal to that removed during study.
(§2) Compound plasma concentrations are measured by LC/MS/MS assays. Data are then analyzed using standard non-compartmental pharmacokinetic analysis. Oral bioavailability is calculated as: (AUC0-infinity,oral/AUC0-infinity,i.v.)×(Dose,i.v./Dose,oral)×100%

[3] = Dog oral bioavailability; format: in vivo; conditions: plasma; fasted male beagle dog; IV 0.25 mg/kg, PO 1 mg/kg; Mean±SD, n=3; based on AUC0-24hr
Method: as §1, §2

[4] = target: T1, hCB-2 (Homo sapiens, UniProt P34972); assay: hCB2-Sf9 antagonist mode SPA GTP-γ-35S binding assay; format: biochemical; conditions: antagonist mode vs methanandamide; read-out: hCB-2 SPA GTPγS Sf9 Membrane Antagonist Kb
T1 construct: purchased Perkin Elmer, Boston, Mass; host or cells: Sf9 cell membranes
T1 sequence (P34972 whole entry): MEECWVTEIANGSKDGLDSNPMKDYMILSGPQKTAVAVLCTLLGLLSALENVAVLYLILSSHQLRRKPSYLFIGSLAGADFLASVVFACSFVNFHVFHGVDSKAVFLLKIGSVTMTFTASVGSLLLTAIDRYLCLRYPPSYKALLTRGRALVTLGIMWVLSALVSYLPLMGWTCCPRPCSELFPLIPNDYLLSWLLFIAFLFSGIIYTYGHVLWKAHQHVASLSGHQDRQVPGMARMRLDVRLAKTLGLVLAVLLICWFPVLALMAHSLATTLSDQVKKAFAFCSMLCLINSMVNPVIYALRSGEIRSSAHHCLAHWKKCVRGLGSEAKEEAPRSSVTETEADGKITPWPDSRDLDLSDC
Method: (§3) Compounds of the present invention may be tested for functional activity at the CB-1 and CB-2 receptors in both agonist and antagonist modes using SPA (Scintillation Proximity Assay) based GTP-γ-^35S binding assays. All assay components are prepared in assay buffer (20 mM HEPES, 100 mM NaCl, 5 mM MgCl2, pH 7.4) at room temperature. Semi-log dilutions of test compound are prepared in assay buffer containing BSA (0.125% final conc.) for the agonist mode assays. For the antagonist mode assays, test compounds are prepared in the same manner but also include an 80% efficacious dose of a full agonist (methanandamide). GTP-γ^35S binding for the antagonist assay may be measured in a 96 well format using a modification of an antibody capture technique previously described. (DeLapp, N W, et al. (1999) J Pharmacol Exp Ther 289:946-955.) The CB-2 receptor agonist activity may be measured using a similar method using hCB2-Sf9 membranes. The CB-1 receptor agonist activity may be measured using a whole membrane capture technique using hCB1-CHO membranes. All incubations are done at room temperature. […]
(§4) Data are analyzed as follows: Background is subtracted from all wells. […] Percent antagonist inhibition is calculated by first normalizing the data to the signal generated by a saturating concentration of the full agonist (methanandamide). Then the data are analyzed using a 4-parameter logistic reduced fit (Activity Base™ and XLFit3™ from IDBS, Emeryville, Calif.). Kb values are determined using a modification of the Cheng-Prusoff relationship: Kb=IC50/(1+[agonist]/EC50), where “IC50” is determined from a four parameter fit of displacement curves, “[agonist]” is the agonist challenge concentration (nM), and “EC50” is determined from a four parameter fit of a full agonist concentration response curve (Cheng and Prusoff 1973). Mean Kb values are calculated as a mean of at least three independent determinations±standard error of the mean (SEM). […]

[5] = target: T2, hCB-1 (Homo sapiens, UniProt P21554); assay: hCB1-CHO antagonist mode SPA GTP-γ-35S binding assay; format: biochemical; set-up: purchased Applied Cell Sciences, Rockville, Md; host or cells: CHO cell membranes; conditions: antagonist mode vs methanandamide; read-out: hCB-1 SPA GTPγS CHO Membrane Antagonist Kb
T2 sequence (P21554 whole entry): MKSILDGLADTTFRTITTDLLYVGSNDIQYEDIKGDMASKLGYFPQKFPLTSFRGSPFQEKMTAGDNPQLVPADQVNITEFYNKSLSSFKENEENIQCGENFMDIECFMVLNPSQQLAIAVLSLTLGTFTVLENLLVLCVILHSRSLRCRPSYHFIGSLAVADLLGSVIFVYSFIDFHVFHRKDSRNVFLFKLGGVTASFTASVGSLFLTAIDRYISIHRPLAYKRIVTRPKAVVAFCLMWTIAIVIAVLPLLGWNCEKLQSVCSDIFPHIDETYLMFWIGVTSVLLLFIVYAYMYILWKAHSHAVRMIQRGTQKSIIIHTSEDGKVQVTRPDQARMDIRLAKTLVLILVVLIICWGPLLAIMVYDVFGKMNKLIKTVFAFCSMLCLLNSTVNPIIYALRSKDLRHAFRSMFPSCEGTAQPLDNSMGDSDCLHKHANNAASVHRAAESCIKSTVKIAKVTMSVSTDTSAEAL
Method: (§5) Compounds of the present invention may be tested for functional activity at the CB-1 and CB-2 receptors in both agonist and antagonist modes using SPA (Scintillation Proximity Assay) based GTP-γ-^35S binding assays. All assay components are prepared in assay buffer (20 mM HEPES, 100 mM NaCl, 5 mM MgCl2, pH 7.4) at room temperature. Semi-log dilutions of test compound are prepared in assay buffer containing BSA (0.125% final conc.) for the agonist mode assays. For the antagonist mode assays, test compounds are prepared in the same manner but also include an 80% efficacious dose of a full agonist (methanandamide). GTP-γ^35S binding for the antagonist assay may be measured in a 96 well format using a modification of an antibody capture technique previously described. (DeLapp, N W, et al. (1999) J Pharmacol Exp Ther 289:946-955.) The CB-2 receptor agonist activity may be measured using a similar method using hCB2-Sf9 membranes. The CB-1 receptor agonist activity may be measured using a whole membrane capture technique using hCB1-CHO membranes. All incubations are done at room temperature.
(§6) hCB1-CHO or rCB1-CHO membranes (Applied Cell Sciences, Rockville, Md.) and GDP (1 μM final) are added to ice cold assay buffer and homogenized. […] Plates are then centrifuged at 700×g for 10 min. and the radioactivity counted.
(§7) Data are analyzed as follows: Background is subtracted from all wells. […] Percent antagonist inhibition is calculated by first normalizing the data to the signal generated by a saturating concentration of the full agonist (methanandamide). Then the data are analyzed using a 4-parameter logistic reduced fit (Activity Base™ and XLFit3™ from IDBS, Emeryville, Calif.). Kb values are determined using a modification of the Cheng-Prusoff relationship: Kb=IC50/(1+[agonist]/EC50), where “IC50” is determined from a four parameter fit of displacement curves, “[agonist]” is the agonist challenge concentration (nM), and “EC50” is determined from a four parameter fit of a full agonist concentration response curve (Cheng and Prusoff 1973). […]

[6] = target: T3, rCB-1 (Rattus norvegicus, UniProt P20272); assay: rCB1-CHO antagonist mode SPA GTP-γ-35S binding assay; format: biochemical; conditions: antagonist mode vs methanandamide; read-out: rCB-1 SPA GTPγS CHO Membrane Antagonist Kb
T3 construct: purchased Applied Cell Sciences, Rockville, Md; host or cells: CHO cell membranes
T3 sequence (P20272 whole entry): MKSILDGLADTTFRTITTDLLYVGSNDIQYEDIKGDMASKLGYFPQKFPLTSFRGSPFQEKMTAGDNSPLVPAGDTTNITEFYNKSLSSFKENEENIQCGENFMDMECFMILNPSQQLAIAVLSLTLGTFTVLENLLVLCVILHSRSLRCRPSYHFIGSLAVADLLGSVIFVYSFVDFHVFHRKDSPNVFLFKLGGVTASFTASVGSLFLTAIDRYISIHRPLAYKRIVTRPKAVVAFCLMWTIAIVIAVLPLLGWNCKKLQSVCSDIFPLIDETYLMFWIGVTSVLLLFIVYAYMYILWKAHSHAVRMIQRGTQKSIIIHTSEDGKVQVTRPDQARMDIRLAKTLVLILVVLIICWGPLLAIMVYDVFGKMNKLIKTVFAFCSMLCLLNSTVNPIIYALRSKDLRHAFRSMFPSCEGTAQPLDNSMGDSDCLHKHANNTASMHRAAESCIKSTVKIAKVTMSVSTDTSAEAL
Method: as §5, §6, §7

[7] = target: T2, hCB-1; assay: hCB1-Sf9 antagonist mode SPA GTP-γ-35S binding assay; format: biochemical; set-up: purchased Applied Cell Sciences, Rockville, Md; conditions: Sf9 membrane 22.7 μg; antagonist mode vs methanandamide; read-out: hCB-1 SPA GTPγS Sf9 Membrane 22.7 μg Antagonist Kb
Method: as §3, §4

[8] = target: T1, hCB-2; assay: hCB2-Sf9 agonist mode SPA GTP-γ-35S binding assay; format: biochemical; conditions: read-out: hCB-2 SPA GTPγS Sf9 Membrane Agonist Relative EC50
Method: as §3
Data are analyzed as follows: Background is subtracted from all wells. […] Percent antagonist inhibition is calculated by first normalizing the data to the signal generated by a saturating concentration of the full agonist (methanandamide). […]

[9] = target: T2, hCB-1; assay: hCB1-CHO agonist mode SPA GTP-γ-35S binding assay; format: biochemical; set-up: purchased Applied Cell Sciences, Rockville, Md; host or cells: CHO cell membranes; conditions: inverse agonism, read-out: hCB-1 SPA GTPγS CHO Membrane Agonist Relative EC50 inverse
Method: as §5
hCB1-CHO membrane, GDP (1 μM final conc.), and saponin (10 μg/mL final conc., Sigma, St Louis, Mo.) are combined and prepared on ice as for the antagonist assays, above. Diluted test compounds, GTP-γ-^35S ([…] final conc.) and membranes are combined in the assay plate and incubated for 30 min. Then 1 mg/well Wheatgerm Agglutinin SPA beads (GE Healthcare, Piscataway, N.J.) are added, plates are sealed and vortexed and incubate for 1 hr. before spinning and counting in the same fashion as for the antagonist assays, above.
Data are analyzed as follows: Background is subtracted from all wells. Percent agonist efficacy is determine by normalizing agonist/inverse agonist dose response data to the response obtained for a full agonist (methanandamide). Percent antagonist inhibition is calculated by first normalizing the data to the signal generated by a saturating concentration of the full agonist (methanandamide). Then the data are analyzed using a 4-parameter logistic reduced fit (Activity Base™ and XLFit3™ from IDBS, Emeryville, Calif.). Kb values are determined using a modification of the Cheng-Prusoff relationship: Kb=IC50/(1+[agonist]/EC50), where “IC50” is determined from a four parameter fit of displacement curves, “[agonist]” is the agonist challenge concentration (nM), and “EC50” is determined from a four parameter fit of a full agonist concentration response curve (Cheng and Prusoff 1973). Mean Kb values are calculated as a mean of at least three independent determinations±standard error of the mean (SEM). […]

Structure (SMILES): CC(C)(N[C@@H]1C[C@H](c2cccc(OC(F)(F)F)c2)N(c2ccc(C(F)(F)F)cc2)C1=O)c1cccc(C(F)(F)F)n1 [Example 11, (3R,5R)-3-[1-Methyl-1-(6-trifluoromethyl-pyridin-2-yl)-ethylamino]-5-(3-trifluoromethoxy-phenyl)-1-(4-trifluoromethyl-phenyl)-pyrrolidin-2-one]
- minimum effective dose (MED) in forced swim test ([1]; mice, p.o.): 3 mg/kg

Structure (SMILES): CC(C)(N[C@@H]1C[C@H](c2cccc(OC(F)(F)F)c2)N(c2ccc(C#N)cc2)C1=O)c1cccc(C(F)(F)F)n1 [Example 27, 4-[(3R,5R)-3-[1-Methyl-1-(6-trifluoromethyl-pyridin-2-yl)-ethylamino]-2-oxo-5-(3-trifluoromethoxy-phenyl)-pyrrolidin-1-yl]-benzonitrile]
- Seconds of immobility ([1]; 1 mg/Kg p.o., mice): 170 s
- Dunett's Test (0.05) * against vehicle, # against Imipramine ([1]; 1 mg/Kg): #
- Seconds of immobility ([1]; 3 mg/Kg p.o., mice): 128 s
- Dunett's Test (0.05) * against vehicle, # against Imipramine ([1]; 3 mg/Kg): *
- Seconds of immobility ([1]; 10 mg/Kg p.o., mice): 80 s
- Dunett's Test (0.05) * against vehicle, # against Imipramine ([1]; 10 mg/Kg): *
- duration of immobility in forced swim test ([1]; mice, p.o., result in words): significantly reduce the duration of mobility in a dose dependent manner

- bioavailability [2]: 58 ± 8.6%
- bioavailability [3]: 33 ± 13%
Structure (SMILES): CC(C)(N[C@@H]1C[C@H](c2cccc(OC(F)(F)F)c2)N(c2ccc(C#N)cc2)C1=O)c1cccc(C(F)(F)F)n1 [Example 27HCl Salt, 4-[(3R,5R)-3-[1-methyl-1-(6-trifluoromethyl-pyridin-2-yl)-ethylamino]-2-oxo-5-(3-trifluoromethoxy-phenyl)-pyrrolidin-1-yl]-benzonitrile hydrochloride]

- Kb [4]: > 11900 nM
- Kb [5]: 2.37 nM
- Kb [6]: 0.756 nM
- Kb [7]: 1.76 nM
- EC50 [8]: > 100000 nM
- EC50 [9]: 3.02 nM
Structure (SMILES): CC(C)(N[C@@H]1C[C@H](c2cccc(C(F)(F)F)c2)N(c2ccc(OC(F)(F)F)cc2)C1=O)c1cccc(C(F)(F)F)n1 [Example 28, (3R,5R)-3-[1-Methyl-1-(6-trifluoromethyl-pyridin-2-yl)-ethylamino]-5-(3-trifluoromethyl-phenyl)-1-(4-trifluoromethoxy-phenyl)-pyrrolidin-2-one]
- minimum effective dose (MED) in forced swim test ([1]; mice, p.o.): 10 mg/kg

Structure (SMILES): CN(C)CCCN1c2ccccc2CCc2ccccc21 [Imipramine, reference compound]
- Dunett's Test (0.05) * against vehicle, # against Imipramine ([1]; 15 mg/Kg): *
- Seconds of immobility ([1]; 15 mg/Kg, mice): 80 s
